Counter-ions that a name gives are not always drawn. Like-named read-outs stand apart in the source and are kept apart here.

Experiment [1] in a line: Anorexigenic activity in dogs. Type of experiment: in vivo, Beagle dogs. The conditions noted are these: Canis lupus familiaris, read-out: percentage inhibition of consuming food. How it is done: 2. ANOREXIGENIC ACTIVITY IN DOGS
Beagle dogs are conditioned to take their food over the course of 5 minutes once per day. The test compound is administered orally in the form of a single dose of 10 mg/kg one hour before the food is presented. The amount of food ingested is measured at regular intervals.
Table II gives the percentage inhibition of consuming food as a function of the time after treatment.

The nature of experiment [2]: Potentiation of amphetamine: stereotypies in rats after d-amphetamine sulphate. It is filed as in vivo. Conditions: 30 min before 5 mg/kg d-amphetamine sulphate i.p., over 3 hours, maximum 24. How it is done:
1. POTENTIATION OF AMPHETAMINE
The test compound is administered intraperitoneally to rats 30 minutes before the intraperitoneal injection of 5 mg/kg of d-amphetamine sulphate. The intensity of the stereotypies over a period of 3 hours is assessed by attributing a number from 0 to 4. Table I indicates the sum of the assessments as a function of the doses administered. The maximum assessment is 24.

Where [3] appears, read: Beagle dogs, 10 mg/kg oral, 1 hr after treatment.
Setting [4] is: Beagle dogs, 10 mg/kg oral, 2 hrs after treatment.
[5] abbreviates: Beagle dogs, 10 mg/kg oral, 4 hrs after treatment.
Where [6] appears, read: Beagle dogs, 10 mg/kg oral, 24 hrs after treatment.

As for `CC1(C)NC(C2CC2)CC1c1cccc(F)c1.Cl` (stereo not shown) [XXVIII, 2-cyclopropyl-4-(m-fluorophenyl)-5,5-dimethylpyrrolidine hydrochloride], the inhibition in vivo at 10 mg/kg was found to be 100% in experiment [1] (setting [3]), 100% in experiment [1] (setting [4]), 100% in experiment [1] (setting [5]) and 0% in experiment [1] (setting [6]). In addition, the “sum of the assessments of intensity of stereotypies” value (“sum” for short) in experiment [2] (1 mg/kg intraperitoneal) came to 16; in experiment [2] (4 mg/kg intraperitoneal) it was 17; in experiment [2] (16 mg/kg intraperitoneal), 16.

`COc1ccc(C2CC(C3CC3)NC2C)cc1OC.Cl` (stereo not shown) [XXXI, 2-cyclopropyl-4-(3',4'-dimethoxyphenyl)-5-methylpyrrolidine hydrochloride]: the inhibition in vivo at 10 mg/kg in experiment [1] (setting [3]) and in experiment [1] (setting [4]) was 0% each time. In addition, the “sum” value in experiment [2] (2 mg/kg intraperitoneal) stood at 10; in experiment [2] (8 mg/kg intraperitoneal) it was 24; in experiment [2] (32 mg/kg intraperitoneal), 23.

Take `CC1NC(C2CC2)CC1c1cccc(C(F)(F)F)c1.Cl` (stereo not shown) [XXIX, 2-cyclopropyl-4-(m-trifluoromethylphenyl)-5-methyl-pyrrolidine hydrochloride]: the inhibition in vivo at 10 mg/kg in experiment [1] (setting [3]) and in experiment [1] (setting [4]) was 0% throughout. Moreover, the “sum” value was 17 in experiment [2] (1 mg/kg intraperitoneal), 22 in experiment [2] (4 mg/kg intraperitoneal) and 16 in experiment [2] (16 mg/kg intraperitoneal).

Turning to `CCN1C(C)C(c2cccc(C(F)(F)F)c2)CC1C1CC1` (stereo not shown) [XXXVIII, N-ethyl-2-cyclopropyl-4-(m-trifluoromethylphenyl)-5-methylpyrrolidine], the inhibition in vivo at 10 mg/kg in experiment [1] (po, 1 h) is 0%; in experiment [1] (po, 2 h), 0%. Also, the “sum” value in experiment [2] (1 mg/kg intraperitoneal) was 20; in experiment [2] (4 mg/kg intraperitoneal) it was 24; in experiment [2] (8 mg/kg intraperitoneal), 24.

For the compound `C#CCN1C(C)C(c2ccc(Cl)c(Cl)c2)CC1C1CC1.Cl` (stereo not shown) [Example XXXV, N-propargyl-2-cyclopropyl-4-(3',4'-dichlorophenyl)-5-methylpyrrolidine hydrochloride], the inhibition in vivo at 10 mg/kg in experiment [1] (po, 1 h) was 60%; in experiment [1] (po, 2 h), 60%; in experiment [1] (po, 4 h), 60%; in experiment [1] (po, 24 h), 0%. Also, the results for the “sum” value in experiment [2] (1 mg/kg intraperitoneal), in experiment [2] (4 mg/kg intraperitoneal) and in experiment [2] (16 mg/kg intraperitoneal) were 18, 23 and 23, respectively.

Consider `CC1(C)NC(C2CC2)CC1c1cccc(C(F)(F)F)c1.Cl` (stereo not shown) [Example XXX, 2-cyclopropyl-4-(m-trifluoromethylphenyl)-5,5-dimethylpyrrolidine hydrochl oride], for which the inhibition in vivo at 10 mg/kg in experiment [1] (setting [3]) and in experiment [1] (setting [4]) was 0% in each case. The “sum” value in experiment [2] (1 mg/kg intraperitoneal) came to 20; in experiment [2] (4 mg/kg intraperitoneal), 24; in experiment [2] (16 mg/kg intraperitoneal) it was 24.

As to `CC1(C)NC(C2CC2)CC1c1ccc(Cl)cc1.Cl` (stereo not shown) [Example XXIII, 2-cyclopropyl-4-(p-chlorophenyl)-5,5-dimethyl-pyrrolidine hydrochloride], the inhibition in vivo at 10 mg/kg is 100% in experiment [1] (setting [3]), 100% in experiment [1] (setting [4]), 100% in experiment [1] (setting [5]) and 50% in experiment [1] (setting [6]). The entries for the “sum” value in experiment [2] (2 mg/kg intraperitoneal), in experiment [2] (8 mg/kg intraperitoneal) and in experiment [2] (32 mg/kg intraperitoneal) were 12, 18 and 17, respectively.

Turning to `Cc1ccc(C2CC(C3CC3)NC2C)cc1.Cl` (stereo not shown) [XXXIII, 2-cyclopropyl-4-(p-methylphenyl)-5-methyl-pyrrolidine hydrochloride], the inhibition in vivo at 10 mg/kg turned out to be 0% in experiment [1] (po, 1 h) and 0% in experiment [1] (po, 2 h). The “sum” value turned out to be 12 in experiment [2] (2 mg/kg intraperitoneal), 19 in experiment [2] (8 mg/kg intraperitoneal) and 24 in experiment [2] (32 mg/kg intraperitoneal).

`CC1(C)NC(C2CC2)CC1c1cccc(Cl)c1.Cl` (stereo not shown) [XXVI, 2-cyclopropyl-4-(m-chlorophenyl)-5,5-dimethylpyrrolidine hydrochloride]: the inhibition in vivo at 10 mg/kg was 60% in experiment [1] (setting [3]), 60% in experiment [1] (setting [4]), 60% in experiment [1] (setting [5]) and 0% in experiment [1] (setting [6]). Also, the figures for the “sum” value in experiment [2] (1 mg/kg intraperitoneal), in experiment [2] (4 mg/kg intraperitoneal) and in experiment [2] (16 mg/kg intraperitoneal) were 12, 14 and 19, respectively.

Turning to `CC1NC(C2CC2)CC1c1cccc(Cl)c1.Cl` (stereo not shown) [XXV, 2-cyclopropyl-4-(m-chlorophenyl)-5-methylpyrrolidine hydrochloride], the inhibition in vivo at 10 mg/kg in experiment [1] (setting [3]) is 50%; in experiment [1] (setting [4]), 50%; in experiment [1] (setting [5]) it was 50%; in experiment [1] (setting [6]), 0%. Also, the “sum” value was 13 in experiment [2] (0.5 mg/kg intraperitoneal), 18 in experiment [2] (2 mg/kg intraperitoneal) and 23 in experiment [2] (8 mg/kg intraperitoneal).

In the case of `CC1(C)NC(C2CC2)CC1c1ccccc1.Cl` (stereo not shown) [Example XXI, 2-cyclopropyl-4-phenyl-5,5-dimethylpyrrolidine hydrochloride], the inhibition in vivo at 10 mg/kg in experiment [1] (po, 1 h) was determined as 100%; in experiment [1] (po, 2 h) it was 100%; in experiment [1] (po, 4 h), 70%; in experiment [1] (po, 24 h), 0%. Besides, the “sum” value in experiment [2] (4 mg/kg intraperitoneal) came out at 10; in experiment [2] (8 mg/kg intraperitoneal), 11; in experiment [2] (16 mg/kg intraperitoneal), 13.

For `C#CCN1C(C)C(c2ccc(Cl)cc2)CC1C1CC1.Cl` (stereo not shown) [XXXVI, N-propargyl-2-cyclopropyl-4-(p-chlorophenyl)-5-methylpyrrolidine hydrochloride], the inhibition in vivo at 10 mg/kg in experiment [1] (po, 1 h) came out at 0%; in experiment [1] (po, 2 h), 0%. In addition, the “sum” value in experiment [2] (8 mg/kg intraperitoneal) and in experiment [2] (32 mg/kg intraperitoneal) was 24 each time.

As to `CC1C(c2ccc(Cl)cc2)CC(C2CC2)N1CCO.Cl` (stereo not shown) [XXXVII, N-hydroxyethyl-2-cyclopropyl-4-(p-chlorophenyl)-5-methylpyrrolidine hydrochloride], the inhibition in vivo at 10 mg/kg in experiment [1] (setting [3]) and in experiment [1] (setting [4]) was 0% each time. Besides, the “sum” value in experiment [2] (2 mg/kg intraperitoneal) turned out to be 12; in experiment [2] (16 mg/kg intraperitoneal), 24; in experiment [2] (32 mg/kg intraperitoneal) it was 24.

In the case of `CC1NC(C2CC2)CC1c1ccccc1.Cl` (stereo not shown) [Example XXII, 2-cyclopropyl-4-phenyl-5-methyl-pyrrolidine hydrochloride], the inhibition in vivo at 10 mg/kg in experiment [1] (po, 1 h) was 50%; in experiment [1] (po, 2 h) it was 50%; in experiment [1] (po, 4 h), 0%. In addition, the figures for the “sum” value in experiment [2] (1 mg/kg intraperitoneal), in experiment [2] (4 mg/kg intraperitoneal) and in experiment [2] (16 mg/kg intraperitoneal) were 8, 9 and 12, respectively.

As for `CC1(C)NC(C2CC2)CC1c1ccc2c(c1)OCO2` (stereo not shown) [XXXII, 2-cyclopropyl-4-(3',4'-methylenedioxyphenyl)-5,5-dimethylpyrrolidine hydrochloride], the inhibition in vivo at 10 mg/kg in experiment [1] (po, 1 h) turned out to be 100%; in experiment [1] (po, 2 h) it was 100%; in experiment [1] (po, 4 h), 100%; in experiment [1] (po, 24 h) it was 0%. Moreover, the “sum” value is 18 in experiment [2] (2 mg/kg intraperitoneal), 24 in experiment [2] (8 mg/kg intraperitoneal) and 23 in experiment [2] (32 mg/kg intraperitoneal).

Regarding `CC1C(c2ccc(Cl)c(Cl)c2)CC(C2CC2)N1Cc1ccccc1.Cl` (stereo not shown) [XXXIV, N-benzyl-2-cyclopropyl-4-(3',4'-dichlorophenyl)-5-methylpyrrolidine hydrochloride], the inhibition in vivo at 10 mg/kg in experiment [1] (setting [3]) came out at 100%; in experiment [1] (setting [4]) it was 100%; in experiment [1] (setting [5]), 100%; in experiment [1] (setting [6]), 50%; in experiment [1] (Beagle dogs, 10 mg/kg oral, 48 hrs after treatment), 0%. Also, the “sum” value worked out at 20 in experiment [2] (2 mg/kg intraperitoneal), 21 in experiment [2] (8 mg/kg intraperitoneal) and 15 in experiment [2] (32 mg/kg intraperitoneal).

(Values after patent US4005103A, “Pyrrolidine derivatives” (priority 1973, dated 1977).)
